From patent publication US10844002B2, “Lipids and lipid compositions for the delivery of active agents” (priority 2014, dated 2020)
Several values for one entry are separate records, joined by “and”; a condition that tells them apart may be missing. Equal entries are not always repeated.

Key:
[1] = Measurement of mRNA encapsulation in lipid nanoparticles (Quant-iT Ribogreen); type: physicochemical; conditions: LNP cationic lipid/DSPC/cholesterol/stealth lipid, N:P 4:1, leptin mRNA
Method: All equipment and disposable supplies are certified free of RNase activity by the manufacturer or rendered RNase free by use of the RNaseZap reagent (LifeTechnologies). mRNA is encapsulated at a cationic lipid amine to mRNA phosphate (N:P) molar ratio of 4:1. Lipids (cationic lipid, DSPC, cholesterol and lipidated PEG or stealth lipid) are dissolved in ethanol. The molar ratios are 40:10:38:2, respectively. The mixture is sonicated briefly, then gently agitated for 5 minutes and then maintained at 37° C. until use. mRNA is exchanged into citrate buffer pH 5.8-6.0 by use of Amicon Ultra-15 centrifugal concentrators, and the final concentration is adjusted to 0.5 mg/ml and held at 37° C. until use. An equal volume of lipids in ethanol, mRNA in citrate buffer, and citrate buffer alone are drawn into disposable syringes. Tubing leading from syringes containing lipids and mRNA are attached to the T junction, and tubing leading from the syringe containing citrate buffer alone is paired with the tubing exiting the T-junction over a collection vessel containing a stir bar on an active stir plate. Syringes are placed in a syringe pump set to expel contents at a flow rate of 1 ml per minute.
The pump is activated, and the collected mRNA in lipid nanoparticles is transferred to SnakeSkin dialysis tubing (10,000 MWCO, Thermo Scientific). Material is dialyzed against RNAse- and pyrogen-free 1× phosphate buffered saline overnight at 4° C.
Percent encapsulation of mRNA in lipid nanoparticles is determined using the Quant-iT Ribogreen RNA Assay kit (Life Technologies). The LNP-mRNA suspension is assayed in buffer (mRNA outside the particle), and buffer plus Triton X-100 detergent (total mRNA). The difference calculated is the mRNA inside the particle. Prepare a 1000 ng/mL stock from the RNA provided in the kit and use this to generate a standard curve (0 ng/ml, 15.63-1000 ng/ml) in TE and TE+0.75% Triton X-100. Prepare LNP-mRNA samples in TE buffer and TE buffer+0.75% Triton X-100 with appropriate dilution so that reading is in the range of standard curve (400-2,000 fold). In a 384-well plate (Costar non-treated #3573) add 0.04 ml of standard (in duplicate) or sample (in triplicate) per well. Dilute Ribogreen reagent 240-fold in TE buffer and add 0.06 ml per well. Mix contents of wells and measure fluorescence (excitation=480 nm, emission=520 nm). Subtract background values (no RNA) from standard and test sample values and determine the concentrations of RNA in the samples using the standard curves. Determine the percent encapsulation of the sample by dividing the difference in concentrations between sample+triton and sample in buffer alone by the sample+triton concentration.

[2] = Characterization of LNP formulations: Z average particle diameter and polydispersity index; type: physicochemical; conditions: LNP formulation
Description: The lipid nanoparticles have a size of about 1 to about 2,500 nm, about 1 to about 1,500 nm, about 1 to about 1,000 nm, in a sub-embodiment about 50 to about 600 nm, in a sub-embodiment about 50 to about 400 nm, in a sub-embodiment about 50 to about 250 nm, and in a sub-embodiment about 50 to about 150 nm. Unless indicated otherwise, all sizes referred to herein are the average sizes (diameters) of the fully formed nanoparticle, as measured by dynamic light scattering on a Malvern Zetasizer. The nanoparticle sample is diluted in phosphate buffered saline (PBS) so that the count rate is approximately 200-400 kcts. The data is presented as a weighted average of the intensity measure.

[3] = test system: H1N1 influenza A strain, Ca107; test: Immunogenicity in ferret models (Influenza): haemagultanin inhibition (HAI) titers; type: in vivo, ferrets; conditions: IM
Method: For immunization in ferrets, a lipid working solution was freshly prepared by dissolving 22.5 mg of Example 1, 5.9 mg of DSPC, 13.9 mg of Cholesterol and 4.0 mg of PEG2000-conjugated DMPE (cat #880150P, Avanti Polar Lipids, Inc.) in 10 ml ethanol. A 10 mL working solution of RNA was also prepared at a concentration of 0.125 mg/ml in 100 mM citrate buffer (pH 6). The working lipid and RNA solutions were heated at 37° C. for 5 min before being loaded into two 10 cc luer-lok syringes. […] The outlet from the T mixer was also FEP tubing separately, 10 mL of citrate buffer (pH 6) was loaded in a third 10 cc syringe which was connected to a separate piece of tubing. All three syringes were loaded on a syringe pump and driven at 1.0 ml/min. The tubing outlets were positioned to collect the mixtures in a 20 mL glass vial which was gently stirred using a stirring bar. All glass vials were baked at 250° C. for 12 hours prior to experiment to completely inactivate any RNase contaminant. At the end of mixing, the stir bar was taken out and the ethanol/aqueous solution was allowed to equilibrate to room temperature for 1 hour. After incubation, the ethanol/aqueous solution was loaded into a syringe, and mixed with equal volume of 100 mM citrate buffer (pH 6) using the aforementioned Tee-junction process. Next, LNPs were concentrated to 20 mL and dialyzed against 10-15 volumes of 1× PBS using by tangential flow filtration before recovering the final product. The TFF system and hollow fiber filtration membranes were purchased from Spectrum Labs (Rancho Dominguez) and were used according to the manufacturer's guidelines. Polysulfone hollow fiber filtration membranes with a 100 kD pore size cutoff and 8 cm^2 surface area were used. For in vitro and in vivo experiments formulations were diluted to the required RNA concentration with 1×. PBS.
A total of seven experimental groups with six animals per group (42 animals) were used in this study; two vaccine doses of each RNA formulation (Groups 2-5), two groups vaccinated with a non-adjuvated (H1N1 subunit) or an adjuvated (MF59/H1N1 subunit) commercially available H1N1 influenza subunit vaccine (Groups 6 and 7) and a mock vaccinated group (Group 1). The RNA test vaccines were derived from a recombinant DNA plasmid (pDNA) carrying an alphavirus genome in which the structural genes were replaced with the HA gene from the H1N1 influenza A strain, Ca107. The RNA was then formulated in either cationic oil-in-water emulsion (CNE) or LNP for delivery to host cells via intramuscular (IM) injection. RNA concentrations for each formulation study group were 15 and 45 mcg for CNE and 5 and 15 mcg for LNP. The H1N1 subunit vaccines were used at a HA subunit protein concentration of 15 mcg. Non-vaccinated animals were mock vaccinated with a vehicle control for the RNA test vaccines. All test vaccines were administered by IM injection on Study Days (SD) 0 followed with a booster vaccination on Study Day 56 (8 weeks post 1st immunization).
Table 5 summarizes Influenza microneutralization data and table 6 the haemagultanin inhibition (HAI) titers. The LNP formulation tested generated immune responses with as little as 5 μg of self-amplifying RNA, as determined by increased HA-specific neutralization and HAI titers.

With `CCCCC/C=C\C/C=C\CCCCCCCCOc1ccc(OCCCCCCCC/C=C\C/C=C\CCCCC)c(COC(=O)CCCN(C)C)c1` [Example 1, 2,5-bis((9Z,12Z)-octadeca-9,12-dien-1-yloxy)benzyl 4-(dimethylamino)butanoate] the “% encapsulation (mRNA Leptin)” value [1] was 73.3%, the “Zav (nm)” value ([2]; Z average particle diameter) was 135.3 nm and the polydispersity ([2]; polydispersity index) was 0.11. For the same compound, the “Influenza HAI titer” value ([3]; 5 mcg RNA, 4wp1, per animal) was 20 (2×) and 80 and 40 (2×) and 10, the “Influenza HAI titer” value ([3]; 5 mcg RNA, 4wp2, per animal) was 640 (2×) and >20480 (3×) and 320 and the “Influenza HAI titer” value ([3]; 5 mcg RNA, 8wp1, per animal) was 20 (2×) and 40 (2×) and 10 and <10. For the same compound, the “Influenza HAI titer” value ([3]; 5 mcg RNA, Pre-bleed, per animal) was less than 10, the “Influenza HAI titer” value ([3]; 15 mcg RNA, 4wp1, per animal) was 160 (2×) and 320 and 80 (2×) and 40 and the “Influenza HAI titer” value ([3]; 15 mcg RNA, 4wp2, per animal) was 640 (4×) and >20480 (2×). The “Influenza HAI titer” value ([3]; 15 mcg RNA, 8wp1, per animal) was 40 (3×) and 80 (2×) and 20 and the “Influenza HAI titer” value ([3]; 15 mcg RNA, Pre-bleed, per animal) was less than 10.
